Test results taken from patent publication US20100298141A1, “SUBSTITUTED PYRIDINE N-OXIDE HERBICIDES” (E. I. DU PONT DE NEMOURS AND COMPANY, priority 2007, published 2010).

Experiments:
redroot pigweed = test: Test A pre-/postemergence greenhouse test; format: in vivo, Amaranthus retroflexus; conditions: for Plant response rating, Pigweed: 0 to 100 scale where 0 is no effect and 100 is complete control; for Pigweed plant response rating: 0 to 100 scale
Summary of the method: (§1)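 Test compounds in non-phytotoxic solvent with surfactant were applied as a preemergence soil spray to seeded loam/sand pots and, concurrently, postemergence to plants at 2–10 cm, one- to two-leaf stage. About ten days in greenhouse, then injury visually rated against untreated controls.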

corn = test: Test A pre-/postemergence greenhouse test; format: in vivo, Zea mays; conditions: for Plant response rating, Corn: 0 to 100 scale where 0 is no effect and 100 is complete control; for Corn plant response rating: 0 to 100 scale
Summary of the method: as §1

blackgrass = test: Test C pre-/postemergence test; format: in vivo, Alopecurus myosuroides
Summary of the method: (§2)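 Seeds were planted and treated preemergence with test chemical in a non-phytotoxic solvent mixture containing surfactant. Postemergence applications of the same formulation went onto plants 2 to 18 cm tall (1- to 4-leaf stage). A dash marks no test result.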

wheat = test: Test C pre-/postemergence test; format: in vivo, Triticum aestivum
Summary of the method: as §2

wild oat = test: Test C pre-/postemergence test; format: in vivo, Avena fatua
Summary of the method: as §2

bermudagrass = test: Test C pre-/postemergence test; format: in vivo, Cynodon dactylon
Summary of the method: as §2

Surinam grass = test: Test C pre-/postemergence test; format: in vivo, Brachiaria decumbens; conditions: for Plant response rating (0 to 100), Surinam Grass: Postemergence
Summary of the method: as §2

crabgrass = test: Test C pre-/postemergence test; format: in vivo, Digitaria sanguinalis
Summary of the method: as §2

kochia = test: Test C pre-/postemergence test; format: in vivo, Kochia scoparia
Summary of the method: as §2

eastern black nightshade = test: Test C pre-/postemergence test; format: in vivo, Solanum ptycanthum
Summary of the method: as §2

pigweed = test: Test C pre-/postemergence test; format: in vivo, Amaranthus retroflexus; conditions: for Plant response rating (0 to 100), Pigweed / Plant response rating, Pigweed: Postemergence; for Plant response rating, Pigweed: scale 0 to 100, 0 no effect, 100 complete control
Summary of the method: as §2

[1] = system: common (oilseed) sunflower; test: Test C pre-/postemergence test; format: in vivo, Helianthus annuus
Summary of the method: as §2

velvetleaf = test: Test C pre-/postemergence test; format: in vivo, Abutilon theophrasti
Summary of the method: as §2

rice = test: Test C flooded paddy test; format: in vivo, Oryza sativa; conditions: Flood
Summary of the method: (§3)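 Visual injury ratings against untreated controls, taken 13 to 15 days after compound was added to paddy water standing 3 cm above the soil.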

duck salad = test: Test C flooded paddy test; format: in vivo, Heteranthera limosa; conditions: Flood
Summary of the method: as §3

barnyardgrass = test: Test C flooded paddy test; format: in vivo, Echinochloa crus-galli; conditions: Flood
Summary of the method: as §3

[2] = Postemergence, 500 g ai/ha, 0 is no effect, 100 is complete control
[3] = Preemergence, 125 g ai/ha, 0 no effect, 100 complete control
[4] = 62 g ai/ha, Preemergence, scale 0 to 100
[5] = 125 g ai/ha, preemergence, scale 0 (no effect) to 100 (complete control)
[6] = Postemergence, 125 g ai/ha, scale 0 to 100, 0 no effect, 100 complete control
[7] = Postemergence, 250 g ai/ha, scale 0 to 100, 0 no effect, 100 complete control
[8] = Preemergence, 31 g ai/ha, scale 0 to 100 (0 no effect, 100 complete control)
[9] = preemergence, 250 g ai/ha, scale 0 (no effect) to 100 (complete control)
[10] = 62 g ai/ha, scale 0 to 100 (0 no effect, 100 complete control)
[11] = 250 g ai/ha, scale 0 to 100, 0 no effect, 100 complete control, 13 to 15 days

Compound: CC(Oc1c(CS(=O)(=O)c2cccc[n+]2[O-])c(C(F)(F)F)nn1C)C(F)(F)F (stereo not shown) [Compound 82]
- Plant response rating, Pigweed (redroot pigweed; Postemergence, 125 g ai/ha): 30
- Pigweed plant response rating (redroot pigweed; [2]): 70
- Pigweed plant response rating (redroot pigweed; [3]): 40
- Plant response rating, Pigweed (redroot pigweed; Preemergence, 500 g ai/ha): 100
- Plant response rating, Corn (corn; Postemergence, 125 g ai/ha): 0
- Corn plant response rating (corn; [2]): 20
- Corn plant response rating (corn; [3]): 0
- Plant response rating, Corn (corn; Preemergence, 500 g ai/ha): 50
- Blackgrass plant response rating (blackgrass; [4]): 100
- Blackgrass plant response rating (blackgrass; [5]): 100
- Plant response rating (0 to 100), Blackgrass (blackgrass; Postemergence, 31 g ai/ha): 0
- Plant response rating (0 to 100), Blackgrass (blackgrass; Postemergence, 62 g ai/ha): 60
- Plant response rating, Blackgrass (blackgrass; [6]): 90
- Plant response rating, Blackgrass (blackgrass; [7]): 95
- Plant response rating, Blackgrass (blackgrass; [8]): 100
- Blackgrass plant response rating (blackgrass; [9]): 100
- Wheat plant response rating (wheat; [4]): 20
- Wheat plant response rating (wheat; [5]): 30
- Plant response rating (0 to 100), Wheat (wheat; Postemergence, 31 g ai/ha): 0
- Plant response rating (0 to 100), Wheat (wheat; Postemergence, 62 g ai/ha): 20
- Plant response rating, Wheat (wheat; [6]): 25
- Plant response rating, Wheat (wheat; [7]): 35
- Plant response rating, Wheat (wheat; [8]): 10
- Wheat plant response rating (wheat; [9]): 60
- Oat, Wild plant response rating (wild oat; [4]): 60
- Oat, Wild plant response rating (wild oat; [5]): 80
- Plant response rating (0 to 100), Oat, Wild (wild oat; Postemergence, 31 g ai/ha): 0
- Plant response rating (0 to 100), Oat, Wild (wild oat; Postemergence, 62 g ai/ha): 0
- Plant response rating, Oat, Wild (wild oat; [6]): 0
- Plant response rating, Oat, Wild (wild oat; [7]): 40
- Plant response rating, Oat, Wild (wild oat; [8]): 35
- Oat, Wild plant response rating (wild oat; [9]): 80
- Bermudagrass plant response rating (bermudagrass; 62 g ai/ha, Preemergence, scale 0 to 100 (0 no effect, 100 complete control)): 100
- Bermudagrass plant response rating (bermudagrass; [5]): 100
- Plant response rating (0 to 100), Bermudagrass (bermudagrass; Postemergence, 31 g ai/ha): 0
- Plant response rating (0 to 100), Bermudagrass (bermudagrass; Postemergence, 62 g ai/ha): 0
- Plant response rating, Bermudagrass (bermudagrass; [6]): 0
- Plant response rating, Bermudagrass (bermudagrass; [7]): 0
- Plant response rating, Bermudagrass (bermudagrass; [8]): 100
- Bermudagrass plant response rating (bermudagrass; [9]): 100
- Surinam Grass plant response rating (Surinam grass; [4]): 80
- Surinam Grass plant response rating (Surinam grass; [5]): 90
- Plant response rating (0 to 100), Surinam Grass (Surinam grass; 31 g ai/ha): 0
- Plant response rating (0 to 100), Surinam Grass (Surinam grass; 62 g ai/ha): 0
- Plant response rating, Surinam Grass (Surinam grass; [8]): 70
- Surinam Grass plant response rating (Surinam grass; [9]): 90
- Crabgrass, Large plant response rating (crabgrass; [4]): 85
- Crabgrass, Large plant response rating (crabgrass; [5]): 98
- Plant response rating (0 to 100), Crabgrass, Large (crabgrass; Postemergence, 31 g ai/ha): 0
- Plant response rating (0 to 100), Crabgrass, Large (crabgrass; Postemergence, 62 g ai/ha): 0
- Plant response rating, Crabgrass, Large (crabgrass; [6]): 0
- Plant response rating, Crabgrass, Large (crabgrass; [7]): 10
- Plant response rating, Crabgrass, Large (crabgrass; [8]): 85
- Crabgrass, Large plant response rating (crabgrass; [9]): 100
- Kochia plant response rating (kochia; [4]): 100
- Kochia plant response rating (kochia; [5]): 100
- Plant response rating (0 to 100), Kochia (kochia; Postemergence, 31 g ai/ha): 0
- Plant response rating (0 to 100), Kochia (kochia; Postemergence, 62 g ai/ha): 0
- Plant response rating, Kochia (kochia; [6]): 0
- Plant response rating, Kochia (kochia; [7]): 0
- Plant response rating, Kochia (kochia; [8]): 100
- Kochia plant response rating (kochia; [9]): 100
- Nightshade plant response rating (eastern black nightshade; [4]): 40
- Nightshade plant response rating (eastern black nightshade; [5]): 80
- Plant response rating, Nightshade (eastern black nightshade; [8]): 0
- Nightshade plant response rating (eastern black nightshade; [9]): 100
- Pigweed plant response rating (pigweed; [4]): 85
- Pigweed plant response rating (pigweed; [5]): 100
- Plant response rating (0 to 100), Pigweed (pigweed; 31 g ai/ha): 0
- Plant response rating (0 to 100), Pigweed (pigweed; 62 g ai/ha): 0
- Plant response rating, Pigweed (pigweed; 125 g ai/ha): 0
- Plant response rating, Pigweed (pigweed; 250 g ai/ha): 10
- Pigweed plant response rating (pigweed; [9]): 100
- Sunflower plant response rating [1, 4]: 0
- Sunflower plant response rating [1, 5]: 45
- Plant response rating, Sunflower [1, 8]: 0
- Sunflower plant response rating [1, 9]: 50
- Velvetleaf plant response rating (velvetleaf; [4]): 80
- Velvetleaf plant response rating (velvetleaf; [5]): 80
- Plant response rating (0 to 100), Velvetleaf (velvetleaf; Postemergence, 31 g ai/ha): 0
- Plant response rating (0 to 100), Velvetleaf (velvetleaf; Postemergence, 62 g ai/ha): 0
- Plant response rating, Velvetleaf (velvetleaf; [6]): 0
- Plant response rating, Velvetleaf (velvetleaf; [7]): 20
- Plant response rating, Velvetleaf (velvetleaf; [8]): 0
- Velvetleaf plant response rating (velvetleaf; [9]): 100
- Plant response rating, Rice (rice; [10]): 0
- Plant response rating, Rice (rice; [11]): 60
- Plant response rating, Ducksalad (duck salad; [10]): 60
- Plant response rating, Ducksalad (duck salad; [11]): 80
- Plant response rating, Barnyardgrass (barnyardgrass; [10]): 0
- Plant response rating, Barnyardgrass (barnyardgrass; [11]): 80
